The test concerns mice. The experiment in a line: Neuropharmacological Assay (SmartCube): automated behavioral signature of compound-treated mice compared with a database of reference drug classes. The test is classed as in vivo. The following applies: for minimal effective dose: Mus musculus, ip, read-out: MED; for minimal effective dose / MED: minimal effective dose: dose having 45% or more total activity in SmartCube, i.p., if only one dose tested, that dose is shown; for AG / AN / AP / AX / CE / HL / MS / PS / SH / AD / UK: SmartCube class probability, 3.0 mg/kg i.p., 15 min before test. Summed up: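 Probabilities of matching each neuropharmacological class (e.g. anxiolytic, antidepressant) come from algorithmic analysis of digitally recorded behaviour, reported for 3.0 mg/kg. Compounds were given intraperitoneally in a Pharmasolve/PEG/propylene glycol vehicle 15 min pre-test. Minimal effective dose is the lowest dose reaching 45% or more total activity.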

Where a name gives a salt, the structure may show the parent alone.

Turning to `CNC1CCc2cc(Cl)sc2C1` (single isomer, unassigned) [Compound 145, 2-chloro-N-methyl-4,5,6,7-tetrahydrobenzothiophen-6-amine hydrochloride], the minimal effective dose was determined as 3 mg/kg, the AG entry is “ND (^ <4%)”, the AN result was “ND (^ <4%)” and the AP result is “ND (^ <4%)”. For the same compound, the AX entry was “ND (^ <4%)”, the CE result is “ND (^ <4%)”, the HL entry was “ND (^ <4%)” and the MS entry is “ND (^ <4%)”. Moreover, the PS entry was “ND (^ <4%)” and the SH entry is given as “ND (^ <4%)”. Also, where the note is “hydrochloride, 3 mg/kg”, the AD entry is “++++ (≥74%)” and the UK result is reported as “ND (^ <4%)”.
Consider `CNC1CCc2cc(Cl)sc2C1` (single isomer, unassigned) [Compound 146, 2-chloro-N-methyl-4,5,6,7-tetrahydrobenzothiophen-6-amine hydrochloride], for which the AG result was “ND (^ <4%)”, the AN result is “ND (^ <4%)”, the AP result was “ND (^ <4%)” and the AX entry was “ND (^ <4%)”. The CE entry is recorded as “ND (^ <4%)”, the HL entry is “ND (^ <4%)”, the MS result is recorded as “ND (^ <4%)” and the PS result is reported as “ND (^ <4%)”. The SH entry was “ND (^ <4%)” and the MED is 3 mpk. In addition, where the note is “hydrochloride, 3 mg/kg”, the AD entry is on record as “ND (^ <4%)” and the UK entry is “+++ (≥49%)”.
In the case of `CNC1CCc2c(sc(Cl)c2C)C1` (single isomer, unassigned) [Compound 147, 2-chloro-N, 3-dimethyl-4,5,6,7-tetrahydrobenzothiophen-6-amine hydrochloride], the minimal effective dose was 3 mg/kg, the AG entry is reported as “ND (^ <4%)”, the CE entry is on record as “ND (^ <4%)” and the MS result is given as “ND (^ <4%)”. For the same compound, the PS entry is on record as “ND (^ <4%)” and the SH result is given as “ND (^ <4%)”. Where the note is “hydrochloride, 3 mg/kg”, the AD entry was “ND (^ <4%)”, the AN result was “+ (≥4%)”, the AP entry is reported as “ND (^ <4%)” and the AX result is “ND (^ <4%)”. In addition, for the setting “hydrochloride, 3 mg/kg”, the HL result is listed as “+ (≥4%)” and the UK entry is “+++ (≥49%)”.
Take `CNC1CCc2c(sc(Cl)c2C)C1` (single isomer, unassigned) [Compound 148, 2-chloro-N, 3-dimethyl-4,5,6,7-tetrahydrobenzothiophen-6-amine hydrochloride]: the AG result is “ND (^ <4%)”, the CE result is “ND (^ <4%)”, the MS entry is “ND (^ <4%)” and the PS result is “ND (^ <4%)”. The SH entry was “ND (^ <4%)” and the MED is 3 mpk. Where the note is “hydrochloride, 3 mg/kg”, the AD entry was “+++ (≥49%)”, the AN result was “ND (^ <4%)”, the AP entry was “+ (≥4%)” and the AX result is listed as “++ (≥24%)”. Under “hydrochloride, 3 mg/kg”, the HL entry was “ND (^ <4%)” and the UK result was “ND (^ <4%)”.
With `CNC1(C)CCc2c(csc2C)C1` (single isomer, unassigned) [Compound 149, N, 1,5-trimethyl-6,7-dihydro-4H-2-benzothiophen-5-amine hydrochloride], the minimal effective dose was found to be 3 mg/kg, the AD result was “ND (^ <4%)”, the AG entry is recorded as “ND (^ <4%)” and the AN entry is “ND (^ <4%)”. The AP entry was “ND (^ <4%)”, the AX result is “ND (^ <4%)”, the CE entry was “ND (^ <4%)” and the MS result is given as “ND (^ <4%)”. The SH entry was “ND (^ <4%)” and the UK entry is on record as “ND (^ <4%)”. In addition, where the note is “hydrochloride, 3 mg/kg”, the HL entry is given as “+ (≥4%)” and the PS result is on record as “++++ (≥74%)”.
On to `CNC1(C)CCc2c(csc2C)C1` (single isomer, unassigned) [Compound 150, N, 1,5-trimethyl-6,7-dihydro-4H-2-benzothiophen-5-amine hydrochloride], for which the AD entry was “ND (^ <4%)”, the AG result was “ND (^ <4%)”, the AN entry is “ND (^ <4%)” and the AP entry is reported as “ND (^ <4%)”. Besides, the AX entry is recorded as “ND (^ <4%)”, the CE result was “ND (^ <4%)”, the MS result is on record as “ND (^ <4%)” and the SH entry was “ND (^ <4%)”. Besides, the UK result was “ND (^ <4%)” and the MED was 3 mpk. Where the note is “hydrochloride, 3 mg/kg”, the HL entry is given as “+++ (≥49%)” and the PS result is reported as “++ (≥24%)”.
`CNC1CCc2sc(Cl)cc2C1` (single isomer, unassigned) [Compound 151, 2-chloro-N-methyl-4,5,6,7-tetrahydrobenzothiophen-5-amine hydrochloride]: the minimal effective dose came out at 3 mg/kg, the AD entry was “ND (^ <4%)”, the AG entry is given as “ND (^ <4%)” and the AN entry was “ND (^ <4%)”. Moreover, the AP result is given as “ND (^ <4%)”, the AX entry is reported as “ND (^ <4%)”, the CE entry is given as “ND (^ <4%)” and the HL result is on record as “ND (^ <4%)”. Moreover, the MS entry is listed as “ND (^ <4%)”, the PS result is “ND (^ <4%)” and the SH result is reported as “ND (^ <4%)”. Also, the UK result (hydrochloride, 3 mg/kg) is on record as “+++ (≥49%)”.
On to `CNC1CCc2sc(Cl)cc2C1` (single isomer, unassigned) [Compound 152, 2-chloro-N-methyl-4,5,6,7-tetrahydrobenzothiophen-5-amine hydrochloride], for which the AD entry is on record as “ND (^ <4%)”, the AG entry is “ND (^ <4%)”, the AN result was “ND (^ <4%)” and the AP entry is “ND (^ <4%)”. Besides, the AX entry is on record as “ND (^ <4%)”, the CE entry was “ND (^ <4%)”, the HL entry was “ND (^ <4%)” and the MS result is “ND (^ <4%)”. Moreover, the PS entry is “ND (^ <4%)”, the SH entry is given as “ND (^ <4%)” and the MED amounted to 3 mpk. In addition, under “hydrochloride, 3 mg/kg”, the UK result is on record as “++ (≥24%)”.
On to `CNC1CCc2csc(C3CC3)c2C1` (single isomer, unassigned) [Compound 154, 3-cyclopropyl-N-methyl-4,5,6,7-tetrahydro-2-benzothiophen-5-amine hydrochloride], for which the AG result was “ND (^ <4%)”, the AN entry is on record as “ND (^ <4%)”, the AP entry is “ND (^ <4%)” and the AX entry was “ND (^ <4%)”. The HL entry is given as “ND (^ <4%)”, the PS result is “ND (^ <4%)” and the UK result is “ND (^ <4%)”. Also, for the setting “hydrochloride, 3 mg/kg”, the AD entry is on record as “ND (^ <4%)”, the CE entry is recorded as “ND (^ <4%)”, the MS entry is listed as “ND (^ <4%)” and the SH result is given as “ND (^ <4%)”. This compound also showed an MED (hydrochloride) of over 1 mpk.
In the case of `CNC1CCc2csc(C3CC3)c2C1` (single isomer, unassigned) [Compound 155, 3-cyclopropyl-N-methyl-4,5,6,7-tetrahydro-2-benzothiophen-5-amine hydrochloride], the AG entry is “ND (^ <4%)”, the AN entry is on record as “ND (^ <4%)”, the AP result was “ND (^ <4%)” and the AX result is “ND (^ <4%)”. For the same compound, the HL result is recorded as “ND (^ <4%)”, the PS result was “ND (^ <4%)” and the UK result was “ND (^ <4%)”. Under “hydrochloride, 3 mg/kg”, the AD entry is “+ (≥4%)”, the CE entry is recorded as “+ (≥4%)”, the MS entry is listed as “+ (≥4%)” and the SH entry is reported as “++ (≥24%)”. Moreover, the MED (hydrochloride) is 0.3 mpk.
Take `CN(C)C1CCc2cscc2C1.Cl` (single isomer, unassigned) [Compound 156, N,N-dimethyl-4,5,6,7-tetrahydro-2-benzothiophen-5-amine hydrochloride]: the minimal effective dose was 3 mg/kg, the AD entry is “ND (^ <4%)”, the AG entry was “ND (^ <4%)” and the AN entry is recorded as “ND (^ <4%)”. Moreover, the AP result was “ND (^ <4%)”, the CE entry is given as “ND (^ <4%)”, the HL entry was “ND (^ <4%)” and the MS entry is listed as “ND (^ <4%)”. For the same compound, the PS result was “ND (^ <4%)” and the SH result was “ND (^ <4%)”. Where the note is “hydrochloride, 3 mg/kg”, the AX result is recorded as “++ (≥24%)” and the UK result is given as “++ (≥24%)”.
Regarding `CN(C)C1CCc2cscc2C1.Cl` (single isomer, unassigned) [Compound 157, N,N-dimethyl-4,5,6,7-tetrahydro-2-benzothiophen-5-amine hydrochloride], the AD result is recorded as “ND (^ <4%)”, the AG result is “ND (^ <4%)”, the AN entry was “ND (^ <4%)” and the AP result is recorded as “ND (^ <4%)”. For the same compound, the CE result is listed as “ND (^ <4%)”, the HL entry is “ND (^ <4%)”, the MS result is given as “ND (^ <4%)” and the PS entry is recorded as “ND (^ <4%)”. In addition, the SH result was “ND (^ <4%)” and the MED turned out to be 3 mpk. Also, where the note is “hydrochloride, 3 mg/kg”, the AX entry was “+++ (≥49%)” and the UK entry is listed as “ND (^ <4%)”.
